Like-named read-outs stand apart in the source and are kept apart here.
How the values were obtained:
FoxO3a = FoxO3a inhibition assay (GFP-FoxO3a nuclear to cytoplasmic translocation) in U2OS GFP-FoxO3a H212R reporter cells; assay type: cell-based; details: serum starved overnight, 30 minutes compound treatment, ratio of nuclear to cytosolic GFP intensity, AC50 = concentration that results in 50% activation or inhibition, read-out: FoxO AC50
Method: (§1) Phosphorylation of Akt on S473 and FoxO3a nuclear to cytoplasmic translocation were used as readouts of PI3K/Akt/mTOR pathway activation downstream of growth factor signaling.
(§2) Reporter cell line. U2OS GFP-FoxO3a H212R reporter cell line was established by transducing U2OS cells with the retroviral plasmid pLEGFP-C1 containing FoxO3a H212R transgene and selecting for G418 resistant clones.
(§3) Reporter assay. U2OS GFP-FoxO3a H212R cells were plated in 384-well plates at 4000 cells per well in 30 microliters of McCoy's 5A medium containing 10% FBS. On day 1 the cells were washed with serum free medium and serum starved overnight. On day 2 the cells were treated with different doses of the compounds for 30 minutes, fixed with 4% Paraformaldehyde for 1 hour and stained with Phospho-AKT (Ser473) antibody (Cell Signaling Technology, catalog #4060) overnight at 4° C. After nuclei staining with Hoechst 33342 (Life Technologies, catalog # H3570) the plates were imaged with InCell 2000 (GE Healthcare Bio-Sciences). FoxO3a inhibition activity is calculated as the ratio of nuclear to cytosolic GFP intensity in percent. Akt activation is measured as the total cellular intensity of Phospho-Akt antibody staining in percent. DMSO control is set as 0% activity.

Akt = Akt activation assay (Phospho-AKT (Ser473) antibody staining) in U2OS GFP-FoxO3a H212R reporter cells; assay type: cell-based; details: serum starved overnight, 30 minutes compound treatment, total cellular intensity of Phospho-Akt (Ser473) antibody staining, AC50 = concentration that results in 50% activation or inhibition
Method: as §1, §2, §3

| SMILES | AC50 (FoxO3a) [nM] | AC50 (Akt) [nM] | AC50 (FoxO3a; Homo sapiens, 0.5 h) [nM] | AC50 (Akt; Homo sapiens, 0.5 h) [nM] |
| --- | --- | --- | --- | --- |
| Cc1cc(C(N)=O)nn1-c1ccc(Cc2ccc(C3CCN(C)C3)cc2)cc1 (single isomer, unassigned) [Example 5-2, 5-methyl-1-(4-(4-(1-methylpyrrolidin-3-yl)benzyl)phenyl)-1H-pyrazole-3-carboxamide] | 792 | 2500 |  |  |
| Cc1nc(C(N)=O)nn1-c1ccc(Cc2ccc(-c3ccc(C(=O)NCC(C)(C)O)cc3)cc2)cc1 [Example 51, 1-(4-((4′-((2-hydroxy-2-methylpropyl)carbamoyl)-[1,1′-biphenyl]-4-yl)methyl)phenyl)-5-methyl-1H-1,2,4-triazole-3-carboxamide] |  |  | 102 | 300 |
| Cc1cc(C(N)=O)nn1-c1ccc(Cc2ccc(-c3ccc(CN4CCC(N(C)C)CC4)cc3)cc2)cc1 [Example 40, 1-(4-((4′-((4-(dimethylamino)piperidin-1-yl)methyl)-[1,1′-biphenyl]-4-yl)methyl)phenyl)-5-methyl-1H-pyrazole-3-carboxamide] |  |  | 32 | 146 |
| Cc1cc(C(N)=O)nn1-c1ccc(Cc2ccc(C3CCN(C)C3)cc2)cc1 (single isomer, unassigned) [Example 5-1, 5-methyl-1-(4-(4-(1-methylpyrrolidin-3-yl)benzyl)phenyl)-1H-pyrazole-3-carboxamide] | 295 |  |  | 1320 |
| Cc1cc(C(N)=O)nn1-c1ccc(Cc2ccc(-c3ccc([C@@H]4CCCN4C)cc3)cc2)cc1 [Example 5-8, (S)-5-methyl-1-(4-((4′-(1-methylpyrrolidin-2-yl)-[1,1′-biphenyl]-4-yl)methyl)phenyl)-1H-pyrazole-3-carboxamide] |  |  | 76 | 145 |
| Cc1nc(C(N)=O)nn1-c1ccc(Cc2ccc(-c3ccc(C(=O)N4CCN[C@@H](C)C4)cc3)cc2)cc1 [Example 29, (S)-5-methyl-1-(4-((4′-(3-methylpiperazine-1-carbonyl)-[1,1′-biphenyl]-4-yl)methyl)phenyl)-1H-1,2,4-triazole-3-carboxamide] |  |  | 138 | 486 |
| Cc1nc(C(N)=O)nn1-c1ccc(Cc2ccc(N3CCC(C(C)(C)O)CC3)cc2)cc1 [Example 49, 1-(4-(4-(4-(2-hydroxypropan-2-yl)piperidin-1-yl)benzyl)phenyl)-5-methyl-1H-1,2,4-triazole-3-carboxamide] |  |  | 273 | 840 |
| Cc1cc(C(N)=O)nn1-c1ccc(Cc2ccc(-c3ccc(CN4CCNCC4)cn3)cc2)cc1 [Example 31-3, 5-methyl-1-(4-(4-(5-(piperazin-1-ylmethyl)pyridin-2-yl)benzyl)phenyl)-1H-pyrazole-3-carboxamide] |  |  | 158 | 190 |
| Cc1nc(C(N)=O)nn1-c1ccc(C(C)(C)c2ccc(Cl)cc2)cc1 [Example 1, 1-(4-(2-(4-chlorophenyl)propan-2-yl)phenyl)-5-methyl-1H-1,2,4-triazole-3-carboxamide] |  |  | 576 | 1550 |
| Cc1cc(C(N)=O)nn1-c1ccc(Cc2ccc(-c3ccnc(CN4CCNCC4)c3)cc2)cc1 [Example 31-2] |  |  | 373 | 1620 |
| Cc1nc(C(N)=O)nn1-c1ccc(C(C)(C)c2ccc(-c3ccc4nccnc4c3)cc2)cc1 [Example 13-4] |  |  | 429 | 1240 |
| Cc1cc(C(N)=O)nn1-c1ccc(C(C)(C)c2ccc(-c3ccc(C4(N)COC4)cc3)cc2)cc1 [Example 12, 1-(4-(2-(4′-(3-aminooxetan-3-yl)-[1,1′-biphenyl]-4-yl)propan-2-yl)phenyl)-5-methyl-1H-pyrazole-3-carboxamide] |  |  | 93 | 283 |
| Cc1nc(C(N)=O)nn1-c1ccc(Cc2ccc(-c3cccnc3)cc2)cc1 [Example 15-2] |  |  | 277 | 888 |
| Cc1nc(C(N)=O)nn1-c1ccc(Cc2ccc(C#CC3CCN(C)CC3)cc2)cc1 [Example 54, 5-methyl-1-(4-(4-((1-methylpiperidin-4-yl)ethynyl)benzyl)phenyl)-1H-1,2,4-triazole-3-carboxamide] |  |  | 248 | 528 |
| Cc1cc(C(N)=O)nn1-c1ccc(Cc2ccc(-c3ccc(S(=O)(=O)CCO)cc3)cc2)cc1 [Example 17, 1-(4-((4′-((2-hydroxyethyl)sulfonyl)-[1,1′-biphenyl]-4-yl)methyl)phenyl)-5-methyl-1H-pyrazole-3-carboxamide] |  |  | 29 | 101 |
| Cc1nnc(-c2cccc(-c3ccc(C(C)(C)c4ccc(-n5nc(C(N)=O)nc5C)cc4)cc3)c2)o1 [Example 13-13] |  |  | 179 | 506 |

| SMILES | AC50 (FoxO3a) [nM] | AC50 (Akt) [nM] | AC50 (FoxO3a; Homo sapiens, 0.5 h) [nM] | AC50 (Akt; Homo sapiens, 0.5 h) [nM] |
| --- | --- | --- | --- | --- |
| Cc1nc(-c2ccc(Cc3ccc(-n4nc(C(N)=O)cc4C)cc3)cc2)ccc1C(C)(C)O [Example 20, 1-(4-(4-(5-(2-hydroxypropan-2-yl)-6-methylpyridin-2-yl)benzyl)phenyl)-5-methyl-1H-pyrazole-3-carboxamide] |  |  | 91 | 208 |
| Cc1cc(C(N)=O)nn1-c1ccc(Cc2ccc(-c3ccccc3)cc2)cc1 [Example 3-8, 1-(4-([1,1′-biphenyl]-4-ylmethyl)phenyl)-5-methyl-1H-pyrazole-3-carboxamide] |  |  | 383 | 960 |
| Cc1nc(C(N)=O)nn1-c1ccc(Cc2ccc(-c3ccc(CN4CC[C@@H](O)C4)cc3)cc2)cc1 [Example 39-4] |  |  | 26 | 92 |
| Cc1nc(C(N)=O)nn1-c1ccc(Cc2ccc(-c3ccc(C(C)(C)O)cn3)cc2)cc1 [Example 21, 1-(4-(4-(5-(2-hydroxypropan-2-yl)pyridin-2-yl)benzyl)phenyl)-5-methyl-1H-1,2,4-triazole-3-carboxamide] |  |  | 155 | 723 |
| Cc1cc(C(N)=O)nn1-c1ccc(Cc2ccc(-c3ccc(C(=O)N4CCN[C@@H](CO)C4)cc3)cc2)cc1 [Example 28, (R)-1-(4-((4′-(3-(hydroxymethyl)piperazine-1-carbonyl)-[1,1′-biphenyl]-4-yl)methyl)phenyl)-5-methyl-1H-pyrazole-3-carboxamide] |  |  | 26 | 73 |
| Cc1nc(C(N)=O)nn1-c1ccc(Cc2ccc(-c3ccc(CN4CCC[C@@H]4CO)cc3)cc2)cc1 [Example 38-5] |  |  | 26 | 27 |
| Cc1cc(C(N)=O)nn1-c1ccc(Cc2ccc(-c3ccc(C4(O)COC4)nc3)cc2)cc1 [Example 22, 1-(4-(4-(6-(3-hydroxyoxetan-3-yl)pyridin-3-yl)benzyl)phenyl)-5-methyl-1H-pyrazole-3-carboxamide] |  |  | 42 | 187 |
| Cc1cc(C(N)=O)nn1-c1ccc(Cc2ccc(-c3ccnc(CN(C)C)c3)cc2)cc1 [Example 5-4, 1-(4-(4-(2-((dimethylamino)methyl)pyridin-4-yl)benzyl)phenyl)-5-methyl-1H-pyrazole-3-carboxamide] |  |  | 160 | 789 |
| Cc1nc(C(N)=O)nn1-c1ccc(Cc2ccc(-c3ccc(CN4CCNCC4)cc3)cc2)cc1 [Example 45, 5-methyl-1-(4-((4′-(piperazin-1-ylmethyl)-[1,1′-biphenyl]-4-yl)methyl)phenyl)-1H-1,2,4-triazole-3-carboxamide] |  |  | 130 | 3 |
| Cc1cc(C(N)=O)nn1-c1ccc(Cc2ccc(-c3ccc4c(c3)CNC4)cc2)cc1 [Example 3-4, 1-(4-(4-(isoindolin-5-yl)benzyl)phenyl)-5-methyl-1H-pyrazole-3-carboxamide] |  |  | 75 | 268 |
| Cc1cc(C(N)=O)nn1-c1ccc(Cc2ccc(-c3ccc(C(=O)NC4CNC4)cc3)cc2)cc1 [Example 30, 1-(4-((4′-(azetidin-3-ylcarbamoyl)-[1,1′-biphenyl]-4-yl)methyl)phenyl)-5-methyl-1H-pyrazole-3-carboxamide] |  |  | 237 | 802 |
| Cc1cc(C(N)=O)nn1-c1ccc(Cc2ccc(-c3ccc(CC4CCCN4CO)cc3)cc2)cc1 (centres unmarked) [Example 16-7] |  |  | 9 | 24 |
| Cc1cc(C(N)=O)nn1-c1ccc(C(C)(C)c2ccc(-c3cccc(S(C)(=O)=O)c3)cc2)cc1 [Example 6-2, 5-methyl-1-(4-(2-(3′-(methylsulfonyl)-[1,1′-biphenyl]-4-yl)propan-2-yl)phenyl)-1H-pyrazole-3-carboxamide] |  |  | 480 | 1810 |
| Cc1nc(C(N)=O)nn1-c1ccc(Cc2ccc(-c3ccc(OC4CCN(C)CC4)cc3)cc2)cc1 [Example 47, 5-methyl-1-(4-((4′-((1-methylpiperidin-4-yl)oxy)-[1,1′-biphenyl]-4-yl)methyl)phenyl)-1H-1,2,4-triazole-3-carboxamide] |  |  | 93 | 99 |
| Cc1nc(C(N)=O)nn1-c1ccc(Cc2ccc(-c3ccc(CN4CC5(CCCO5)C4)cc3)cc2)cc1 [Example 39-11] |  |  | 241 |  |
| Cc1cc(C(N)=O)nn1-c1ccc(Cc2ccc(-c3ccc(C(=O)NCC(C)(C)O)cn3)cc2)cc1 [Example 59, 6-(4-(4-(3-carbamoyl-5-methyl-1H-pyrazol-1-yl)benzyl)phenyl)-N-(2-hydroxy-2-methylpropyl)nicotinamide] |  |  | 58 |  |
